Measurements published in ChEMBL document CHEMBL1147107, “Safety and pharmacokinetics of brecanavir, a novel human immunodeficiency virus type 1 protease inhibitor, following repeat administration with and without ritonavir in healthy adult subjects” (Antimicrob Agents Chemother, 2007).

Columns and labels:
Assay type in all cases: ADME, organism-based
[1] = AUC (0-tau) in healthy human plasma at 800 mg for every 12 hrs measured on day 15
[2] = Cmax in healthy human plasma at 800 mg measured on day 1; design: dose 800 mg
[3] = Cmax in healthy human plasma at 800 mg for every 12 hrs measured on day 15; design: dose 800 mg
[4] = Tmax in healthy human plasma at 800 mg measured on day 1
[5] = Tmax in healthy human plasma at 800 mg for every 12 hrs measured on day 15
[6] = Trough concentration in healthy human plasma at 800 mg for every 12 hrs measured on day 15; conditions: read-out: Cmin
[7] = Apparent oral clearance in healthy human plasma at 800 mg for every 12 hrs measured on day 15

Cc1nc(COc2ccc(C[C@H](NC(=O)O[C@H]3CO[C@H]4OCC[C@H]43)[C@H](O)CN(CC(C)C)S(=O)(=O)c3ccc4c(c3)OCO4)cc2)cs1 [BRECANAVIR]
AUC tau at 12 h [1]: 199 ng·h/mL
Cmax [2]: 3.96 ng/mL
Cmax [3]: 49.2 ng/mL
Tmax [4]: 2.5 h
Tmax [5]: 3.75 h
concentration at 12 h [6]: 2.6 ng/mL
CL/F [7]: 67000 mL/min
